From patent publication US20240316042A1 (AbbVie Inc., priority 2023, published 2024)
Converted amounts (≈) assume the structure as drawn. Like-named read-outs stand apart in the source and are kept apart here.

Tests used:
[1] = Phase 1 open-label study in pediatric pcJIA patients: pharmacokinetics at steady state (Day 7); assay type: in vivo, human; conditions: for AUC / half-life: human, plasma, oral; for AUC / half-life / AUC0-24, geometric mean / CLss/F, geometric mean / CLss/F_adjusted (adjusted for bioavailability), geometric mean: Day 7; for AUC: read-out: AUCtau, geometric mean; for half-life: read-out: Functional t1/2, harmonic mean (converted)
Procedure: (§1) Part 1 was a multiple-dose, open-label, multiple-cohort study. Two sequential multiple-ascending dose levels (Low Dose and High Dose levels) were evaluated in the 12 to <18 years age group (Group 1), and one dose level (Low Dose) was evaluated in the two younger age groups (Group 2: 6 to <12 years, and Group 3: 2 to <6 years). Low Dose and High Dose cohorts in age group 1 enrolled 9 subjects each.
(§2) The study enrolled at least 10 subjects below 30 kg. Recruitment of subjects was conducted through a staggered approach based on age. […] Part 3 was an additional safety cohort. […] Part 3 was open to age groups in which Part I enrollment was completed. […] Doses were adjusted during the study for any of the body weight categories after review of results from the subjects who completed Study Part 1.
In Part 1, the dose was administered according to three body weight categories. Subjects were categorized based on age group, and the dose administered for seven consecutive days will be based on three different body weight categories per dose level shown in Table 2.
Patients (N=51) diagnosed with pcJIA were enrolled into one of four groups in an open-label, multiple-dose study (Group 1, 12 to <18 years, low dose; Group 2, 12 to <18 years, high dose; Group 3, 6 to <12 years, low dose; Group 4, 2 to <6 years, low dose). […] Pharmacokinetic assessment was performed at steady state on Study Day 7, after which all patients might continue the study with low dose.

[2] = system: pediatric patients with pcJIA; test: Phase 1 open-label study in pediatric pcJIA patients: efficacy (JIA ACR, JADAS-27, C-HAQ);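 note: values come from an interim analysis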
Procedure: Based on these parameters, the following composite efficacy endpoints were evaluated: • JIA ACR pediatric 30/50/70/90/100 responses • Change from Baseline in JADAS10/27/71 responses, as well as JADAS-based criteria for low disease activity and remission (if deemed useful and appropriate).
This was an interim analysis.
(§3) This interim analysis includes all available pharmacokinetic and safety data and efficacy data collected through Week 48, excluding patients enrolled in the long-term safety cohort.

[3] = system: pediatric subjects with severe atopic dermatitis; test: Phase 1 open-label study in pediatric subjects with severe atopic dermatitis: safety
Procedure: (§4) This was an open-label, multiple-dose study. AD patients (N=35) were enrolled into four cohorts (Cohort 1, 6 to <12 years with low dose; Cohort 2, 6 to <12 years with high dose; Cohort 3, 2 to <6 years with low dose; Cohort 4, 2 to <6 years with high dose). […] PK was evaluated on Day 7 post first dose. Safety was evaluated throughout the study. Exploratory efficacy parameters were collected at specified timepoints.
(§5) Part 1 was a multiple-dose, open-label, multiple-cohort study that consisted of two sequential multiple-ascending dose groups (Low Dose and High Dose levels) in the two age groups. (Group 1: 6 to <12 years and Group 2: 2 to <6 years).

[4] = Phase 1 open-label study in pediatric subjects with severe atopic dermatitis: pharmacokinetics on Day 7; assay type: in vivo, human; conditions: for half-life / Cmax: human, plasma, oral; for half-life: read-out: t1/2, harmonic mean (pseudo standard deviation) (converted)
Procedure: as §4, §5
There was one additional subject who was enrolled in Cohort 3 but withdrew informed consent before PK assessment. This subject was therefore not included in PK analyses.

[5] = Solubility of upadacitinib in different aqueous media at 37° C.; assay type: physicochemical; conditions: 50 mM carbonate buffer, pH 9.11
Source text: For pediatric use, an oral solution was developed to improve acceptability (palatability and swallowability), stability, and manufacturability. […] Thus, low pH buffers such as citrate, phosphate, tartrate, and formate are suitable to prepare the oral solution. […] Citrate buffer was selected because it has favorable pKa (˜3.1), which is close to the final pH of the oral solution.

[6] = Population pharmacokinetic analyses of upadacitinib exposure in adults / adult RA patients; conditions: for median average plasma exposure over a dosing interval: adult RA patients; for AUC0-24 at steady state, model-estimated: adults
Procedure: In Part 1, the dose was administered according to three body weight categories.
The doses selected for this study account for the difference in oral bioavailability between the extended-release tablet formulation and the oral solution. […] Doses were adjusted during the study for any of the body weight categories after review of results from the subjects who completed Part 1.

[7] = system: pediatric subjects with severe atopic dermatitis; test: Phase 1 open-label study in pediatric subjects with severe atopic dermatitis: efficacy (vIGA-AD, EASI); assay type: in vivo, human; conditions: Week 12 (as observed)
Procedure: as §4
During Part 2 of the study, concomitant topical medications for AD were allowed during the study per investigator discretion.
No formal statistical comparisons were planned.

[8] = system: pediatric patients with pcJIA; test: Phase 1 open-label study in pediatric pcJIA patients: safety (adverse events)
Procedure: as §1, §2
This was an interim analysis.
as §3

[9] = pcJIA Group 3: 6 to <12 years, low dose, BID solution
[10] = pcJIA Group 4: 2 to <6 years, low dose, BID solution
[11] = pcJIA Group 1: 12 to <18 years, low dose, QD tablet
[12] = pcJIA Group 2: 12 to <18 years, high dose, QD tablet
[13] = pcJIA Group 3: 6 to <12 years, low dose, QD tablet
[14] = pcJIA Group 3: 6 to <12 years, low dose, tablet and solution combined
[15] = AD Cohort 1: 6 to <12 years, Low Dose, IR Solution, Day 7
[16] = AD Cohort 2: 6 to <12 years, High Dose, ER Tablet, Day 7
[17] = AD Cohort 2: 6 to <12 years, High Dose, IR Solution, Day 7
[18] = AD Cohort 3: 2 to <6 years, Low Dose, IR Solution, Day 7
[19] = AD Cohort 4: 2 to <6 years, High Dose, IR Solution, Day 7
[20] = Enrollment on or after protocol v4.0, N 7
[21] = Enrollment up to protocol v3.0, N 20

Structure (SMILES): CC[C@@H]1CN(C(=O)NCC(F)(F)F)C[C@@H]1c1cnc2cnc3[nH]ccc3n12 [upadacitinib, (3S,4R)-3-ethyl-4-(3H-imidazo[1,2-a]pyrrolo[2,3-e]pyrazin-8-yl)-N-(2,2,2-trifluoroethyl)pyrrolidine-1-carboxamide]
- AUC [1, 9]: 198 ng·h/mL
- half-life [1, 9]: 2.39 h
- AUC [1, 10]: 184 ng·h/mL
- half-life [1, 10]: 2.33 h
- Median AUC0-24 ([1]; pcJIA Group 1 (12 to <18 years), low-dose level): 278 ng·h/mL
- AUC0-24, geometric mean [1, 11]: 269 ng·h/mL
- CLss/F, geometric mean [1, 11]: 55.7 L/h
- CLss/F_adjusted (adjusted for bioavailability), geometric mean [1, 11]: 38.1 L/h
- Median AUC0-24 ([1]; pcJIA Group 2 (12 to <18 years), high-dose level): 547 ng·h/mL
- AUC0-24, geometric mean [1, 12]: 553 ng·h/mL
- CLss/F, geometric mean [1, 12]: 46.5 L/h
- CLss/F_adjusted (adjusted for bioavailability), geometric mean [1, 12]: 31.8 L/h
- CLss/F_adjusted (adjusted for bioavailability), geometric mean [1, 9]: 19.7 L/h
- AUC0-24, geometric mean [1, 13]: 318 ng·h/mL
- CLss/F, geometric mean [1, 13]: 41.6 L/h
- CLss/F_adjusted (adjusted for bioavailability), geometric mean [1, 13]: 28.5 L/h
- AUC0-24, geometric mean [1, 14]: 346 ng·h/mL
- CLss/F_adjusted (adjusted for bioavailability), geometric mean [1, 14]: 24.7 L/h
- Median AUC0-24 ([1]; pcJIA Group 4 (2 to <6 years), low-dose level): 360 ng·h/mL
- CLss/F_adjusted (adjusted for bioavailability), geometric mean [1, 10]: 15.0 L/h
- apparent oral clearance in relation to bodyweight ([1]; pcJIA patients): increased in pcJIA patients with increasing bodyweight
- C-HAQ, Change from Baseline Mean ([…]% CI) ([2]; Week 12, Overall): −0.45 (−0.63, −0.27)
- C-HAQ, Change from Baseline Median (Min, Max) ([2]; Week 12, Overall): −0.38 (−1.9, 1.1)
- ESR, Change from Baseline Median (Min, Max) ([2]; Week 12, Overall): −4.0 (−41, 26) ^
- Patient/Parent Global Assessment of Overall Well Being (VAS), Change from Baseline Median (Min, Max) ([2]; Week 12, Overall): −26.0 (−81, 37) ^
- Physician's Global Assessment of Disease Activity (VAS), Change from Baseline Median (Min, Max) ([2]; Week 12, Overall): −49.0 (−100, 9) ^
- Total Number of Active Joints, Change from Baseline Median (Min, Max) ([2]; Week 12, Overall): −8.0 (−25, 0) ^
- C-HAQ, Change from Baseline Mean ([…]% CI) ([2]; Week 12, age 2 to <6 years): −0.31 (−0.77, 0.15)
- C-HAQ, Change from Baseline Median (Min, Max) ([2]; Week 12, age 2 to <6 years): −0.38 (−1.3, 1.1)
- ESR, Change from Baseline Median (Min, Max) ([2]; Week 12, age 2 to <6 years): −7.0 (−39, 2) ^
- Patient/Parent Global Assessment of Overall Well Being (VAS), Change from Baseline Median (Min, Max) ([2]; Week 12, age 2 to <6 years): −38.0 (−81, 37) ^
- Physician's Global Assessment of Disease Activity (VAS), Change from Baseline Median (Min, Max) ([2]; Week 12, age 2 to <6 years): −49.0 (−72, −25)
- Total Number of Active Joints, Change from Baseline Median (Min, Max) ([2]; Week 12, age 2 to <6 years): −6.0 (−12, −3)
- C-HAQ, Change from Baseline Mean ([…]% CI) ([2]; Week 12, age 6 to <12 years): −0.64 (−0.95, −0.34)
- C-HAQ, Change from Baseline Median (Min, Max) ([2]; Week 12, age 6 to <12 years): −0.38 (−1.9, 1.1)
- ESR, Change from Baseline Median (Min, Max) ([2]; Week 12, age 6 to <12 years): −4.0 (−41, 7) ^
- Patient/Parent Global Assessment of Overall Well Being (VAS), Change from Baseline Median (Min, Max) ([2]; Week 12, age 6 to <12 years): −29.0 (−61, 9) ^
- Physician's Global Assessment of Disease Activity (VAS), Change from Baseline Median (Min, Max) ([2]; Week 12, age 6 to <12 years): −55.0 (−100, −28)
- Total Number of Active Joints, Change from Baseline Median (Min, Max) ([2]; Week 12, age 6 to <12 years): −8.0 (−24, −4)
- C-HAQ, Change from Baseline Mean ([…]% CI) ([2]; Week 12, age 12 to <18 years): −0.33 (−0.58, −0.09)
- C-HAQ, Change from Baseline Median (Min, Max) ([2]; Week 12, age 12 to <18 years): −0.31 (−1.1, 0.5)
- ESR, Change from Baseline Median (Min, Max) ([2]; Week 12, age 12 to <18 years): −2.5 (−17, 26) ^
- Patient/Parent Global Assessment of Overall Well Being (VAS), Change from Baseline Median (Min, Max) ([2]; Week 12, age 12 to <18 years): −23.0 (−45, 8) ^
- Physician's Global Assessment of Disease Activity (VAS), Change from Baseline Median (Min, Max) ([2]; Week 12, age 12 to <18 years): −41.0 (−94, 9) ^
- Total Number of Active Joints, Change from Baseline Median (Min, Max) ([2]; Week 12, age 12 to <18 years): −9.0 (−25, 0) ^
- discontinuation of upadacitinib due to adverse event ([3]; AD Part 2, n=3): 9.7%
- most common AEs ([3]; children with severe AD): COVID infection, headache, and abdominal discomfort
- new safety risks compared to the known safety profile ([3]; children with severe AD): No new safety risks were identified
- overall safety and tolerability ([3]; children with severe AD): generally safe and well tolerated
- CLss/F, geometric mean (mean, % CV) ([4]; AD Cohort 1: 6 to <12 years, Low Dose, ER Tablet, Day 7): 31.5 (34.2, 48) L/h
- CLss/F, geometric mean (mean, % CV) [4, 15]: 19.3 (20.2, 31) L/h
- CLss/F, geometric mean (mean, % CV) [4, 16]: 39.1 (42.3, 37) L/h
- CLss/F, geometric mean (mean, % CV) [4, 17]: 23.0 (23.6, 27) L/h
- CLss/F, geometric mean (mean, % CV) [4, 18]: 15.6 (18.6, 52) L/h
- CLss/F, geometric mean (mean, % CV) [4, 19]: 20.7 (23.6, 66) L/h
- half-life [4, 15]: 2.35 h
- half-life [4, 16]: 4.93 h
- half-life [4, 17]: 1.68 h
- Cmax ([4]; AD Cohort 2: 6 to <12 years, high dose, Day 7 (Example 4), read-out: Geometric mean Cmax at steady-state): 95.5 ng/mL
- half-life [4, 18]: 1.67 h
- Cmax ([4]; AD Cohort 4: 2 to <6 years, High Dose, IR Solution, Day 7, read-out: Cmax, geometric mean (mean, % CV)): 96.9 ng/mL
- half-life [4, 19]: 2.25 h
- Cmax ([4]; AD Cohort 4: 2 to <6 years, high dose, Day 7 (Example 4), read-out: Geometric mean Cmax at steady-state): 101 ng/mL
- solubility [5]: 199 ± 6 µg/mL (≈ 523 µM)
- median average plasma exposure over a dosing interval ([6]; 15 mg QD extended-release formulation): 15.1 ng/mL
- median average plasma exposure over a dosing interval ([6]; 30 mg QD extended-release formulation): 30.0 ng/mL
- Median AUC0-24 at steady state (5th, 95th percentile) ([6]; adult patients with RA, phase 3 trials, 15 mg ER tablet daily): 358 (234, 701) ng·h/mL
- AUC0-24 at steady state, model-estimated ([6]; multiple 15 mg QD doses): 362 ng·h/mL
- AUC0-24 at steady state, model-estimated ([6]; multiple 30 mg QD doses): 720 ng·h/mL
- EASI 75, Responder ([7]; Age 2 to <6 years, N 12): 9 (75.0) n (%)
- vIGA-AD of 0 or 1 with at least two grades of reduction from baseline, Responder ([7]; Age 2 to <6 years, N 12): 3 (25.0) n (%)
- EASI 75, Responder ([7]; Age 6 to <12 years, N 15): 10 (66.7) n (%)
- vIGA-AD of 0 or 1 with at least two grades of reduction from baseline, Responder ([7]; Age 6 to <12 years, N 15): 6 (40.0) n (%)
- EASI 75, Responder [7, 20]: 7 (100) n (%)
- vIGA-AD of 0 or 1 with at least two grades of reduction from baseline, Responder [7, 20]: 3 (42.9) n (%)
- EASI 75, Responder [7, 21]: 12 (60.0) n (%)
- vIGA-AD of 0 or 1 with at least two grades of reduction from baseline, Responder [7, 21]: 6 (30.0) n (%)
- EASI 75, Responder ([7]; Overall, N 27): 19 (70.4) n (%)
- vIGA-AD of 0 or 1 with at least two grades of reduction from baseline, Responder ([7]; Overall, N 27): 9 (33.3) n (%)
- patients reporting serious AEs or AEs leading to treatment discontinuation ([8]; pcJIA part 1, through 7 days): no patients
- patients reporting adverse events (AEs) ([8]; pcJIA part 1, through 7 days, 8 out of 51 patients): 15.7%
- patients reporting AEs ([8]; pcJIA part 2 and part 3, 52 out of 57 patients): 91.2%
- AE of special interest: neutropenia ([8]; pcJIA part 2 and part 3, n=2/57): 3.5%
- AE of special interest: hepatic disorder ([8]; pcJIA part 2 and part 3, n=3/57): 5.3%
- AE of special interest: elevated creatine phosphokinase ([8]; pcJIA part 2 and part 3, n=6/57): 10.5%
- patients reporting AEs leading to treatment discontinuation ([8]; pcJIA, 12 to <18 years of age group, 2 of 19): 10.5%
- patients reporting serious AEs ([8]; pcJIA, 12 to <18 years of age group, six out of 19): 31.6%
- uveitis events ([8]; pcJIA, during the study): no uveitis events occurred
- deaths ([8]; pcJIA, interim analysis): No deaths occurred
- overall safety and tolerability ([8]; pediatric patients with pcJIA): safe and well tolerated
